Source: patent US20130030055A1, “COMPOSITIONS AND METHODS FOR TREATING HAIR LOSS, HAIR THINNING, AND HAIR COLOR LOSS” (priority 2010, published 2013)

Key:
eyelashes = experiment: Randomized vehicle-controlled study: digital image analysis of eyelash length, thickness/fullness, darkness; format: in vivo, human; conditions: week 16; p<0.0001 vs vehicle
Excerpt: The primary efficacy variable was the change in GEA score from the baseline measurement to the month 4 (week 16) measurement. A clinical success was defined as at least a 1-grade increase from baseline. […] The digital image analysis was based on standardized equipment and subject preparation. Digital image analysis is a photographic process developed and performed by Canfield Scientific, Inc. The details regarding these processes are maintained by Canfield Scientific, Inc. and are available upon request. The information describing software and technical processes of digital image analysis is maintained in standard operating procedures (SOPs) and work instruction manuals on file at Canfield Scientific, Inc. Upper eyelash length was measured within a defined eyelash boundary for each eye, known as the full area of interest (AOI). For the digital image, the computer software divided the full AOI image into a series of 25 vertical pixel segments. Within each segment, the maximum upper eyelash length (defined as the maximum height of each segment) was measured in pixels. The mean number of pixels over all segments represented the upper eyelash length and was computed for each digital image across both eyes. Upper eyelash length was additionally measured in terms of millimeters (mm). […] Upper eyelash thickness/fullness was measured within 3 preset rectangular areas (proximal, medial, and distal, each 300×25 pixels) positioned at fixed distances from a standardized point on the eyelash margin. […] Eyelash thickness/fullness was assessed across both eyes as an average of the 3 rectangular areas (i.e., average progressive eyelash thickness), individually for the 3 areas (proximal, medial, and distal), within the full AOI, and within the spline (a narrow area approximately 5 pixels wide, bisecting the AOI). Upper eyelash thickness/fullness was additionally measured in terms of mm2. […] Upper eyelash darkness was determined by lash intensity of the upper eyelash area within the spline. […] Eyelash intensity was calculated within the full AOI and within the spline. […]

[1] = Randomized vehicle-controlled study: adverse events; format: in vivo, human
Description: Safety measurements collected during this study included adverse events, ophthalmic examination variables (iris color, IOP, visual acuity, biomicroscopy, and ophthalmoscopy), physical examination, vital signs, and pregnancy testing.
Safety data (adverse events, ophthalmic examination variables, physical examination, and vital signs variables) were summarized by descriptive statistics and/or frequency tables and were analyzed by appropriate nonparametric statistical methods (Pearson's chi-square test, Wilcoxon rank sum test) and/or parametric tests (ANOVA, t-test). The safety analyses were based on the safety population. No data imputation for missing visits or values was performed.

CCNC(=O)CCC/C=C\C[C@@H]1[C@@H](/C=C/[C@@H](O)CCc2ccccc2)[C@H](O)C[C@@H]1O [bimatoprost]
Mean change from baseline in eyelash darkness, as darker eyelashes (eyelashes): 18% | Mean change from baseline in eyelash length, as increase in length (eyelashes): 25% | Mean change from baseline in eyelash thickness/fullness, as increase (eyelashes): 106% | Subjects reporting conjunctival hyperemia as an adverse event ([1]; 5/137, 0.03% solution once daily for 4 months): 3.6% | Overall safety and tolerability ([1]; healthy adult subjects): safe and well-tolerated
